Measurements reported in ChEMBL document CHEMBL1201862, “PubChem BioAssay data set” (2004).
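Following 48 hours of exposure in 96-well plates, responses at five concentrations were used to interpolate endpoints linearly. The concentration for 50% growth inhibition is given as GI50.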 Activity calls are given as the source filed them. Cut-off read from the data, not from the text of the source: active = GI50 up to about 1.1 µM and inactive = higher.

What was measured:
Assay in all cases: inhibition of tumour cell growth, NCI panel, 48 h
[1] = test system: SK-MEL-28
[2] = test system: 786-0
[3] = test system: TK-10
[4] = test system: SW-620
[5] = test system: DLD-1
[6] = test system: Malme-3M
[7] = test system: NCI-H226
[8] = test system: IGROV-1
[9] = test system: RPMI-8226
[10] = test system: RXF 393
[11] = test system: MOLT-4
[12] = test system: NCI-H23
[13] = test system: SK-OV-3
[14] = test system: NCI-H522
[15] = test system: SK-MEL-5
[16] = test system: OVCAR-4
[17] = test system: DU-145
[18] = test system: HOP-92
[19] = test system: BT-549
[20] = test system: MDA-N

Row | Structure (SMILES) | GI50 [1] | GI50 [2] | GI50 [3] | GI50 [4] | GI50 [5] | GI50 [6] | GI50 [7] | GI50 [8] | GI50 [9] | GI50 [10] | GI50 [11] | GI50 [12] | GI50 [13] | GI50 [14] | GI50 [15] | GI50 [16] | GI50 [17] | GI50 [18] | GI50 [19] | GI50 [20]
1 | CC1CCSC(N(C(=O)N(C)c2ccccc2)c2ccccc2)=N1 (stereo not drawn) | > 100 µM (inactive) | > 100 µM (inactive) | > 100 µM (inactive) | > 100 µM (inactive) | > 100 µM (inactive) | > 100 µM (inactive) | 74.1 µM (inactive) | > 100 µM (inactive) | > 100 µM (inactive) | > 100 µM (inactive) | > 100 µM (inactive) | > 100 µM (inactive) | > 100 µM (inactive) | > 100 µM (inactive) | > 100 µM (inactive) |  |  |  |  | 
2 | Fc1cccc2cc3ccc4cccc5ccc(c12)c3c45 | > 100 µM (inactive) | > 100 µM (inactive) | 0.721 µM (active) | > 100 µM (inactive) | 0.509 µM (active) | > 100 µM (inactive) | 7.66 µM (inactive) | > 100 µM (inactive) |  | > 100 µM (inactive) | > 100 µM (inactive) | 1.63 µM (inactive) | 0.771 µM (active) | > 100 µM (inactive) | > 100 µM (inactive) | > 100 µM (inactive) |  |  |  | 
3 | O=C(c1ccccn1)c1nc(-c2ccc(Cl)c(Cl)c2)nc2ccc(Cl)cc12 | > 100 µM (inactive) | 44.6 µM (inactive) | 67 µM (inactive) | > 100 µM (inactive) | 99.3 µM (inactive) | 32.3 µM (inactive) | 23.1 µM (inactive) | 35 µM (inactive) | > 100 µM (inactive) | 18.7 µM (inactive) | 58.6 µM (inactive) | 20.3 µM (inactive) | 36.4 µM (inactive) |  | 51.9 µM (inactive) | 40.2 µM (inactive) |  |  |  | 
4 | COc1ccc(NC2=NCCO2)c2c1CCCC2 | 30.9 µM (inactive) | 93.5 µM (inactive) | 51.3 µM (inactive) | 47.4 µM (inactive) |  | 34.1 µM (inactive) | 21.9 µM (inactive) | 22.8 µM (inactive) | 24.6 µM (inactive) | 21.4 µM (inactive) | 10.5 µM (inactive) | 25.5 µM (inactive) | 18.4 µM (inactive) | 31.8 µM (inactive) | 17.5 µM (inactive) | 58.7 µM (inactive) | 51.2 µM (inactive) | 19.8 µM (inactive) | 30.2 µM (inactive) | 35.6 µM (inactive)
5 | COc1ccc(OC)c(-c2cc(C(=O)O)c3cc4ccccc4cc3n2)c1 | > 100 µM (inactive) | > 100 µM (inactive) | > 100 µM (inactive) | > 100 µM (inactive) |  | > 100 µM (inactive) | 37.3 µM (inactive) | > 100 µM (inactive) | > 100 µM (inactive) | > 100 µM (inactive) | > 100 µM (inactive) | > 100 µM (inactive) | > 100 µM (inactive) | > 100 µM (inactive) | > 100 µM (inactive) | > 100 µM (inactive) | > 100 µM (inactive) | > 100 µM (inactive) | > 100 µM (inactive) | > 100 µM (inactive)
6 | CC(C)=CCN=C(N)N | > 100 µM (inactive) | > 100 µM (inactive) | > 100 µM (inactive) | > 100 µM (inactive) |  | > 100 µM (inactive) | > 100 µM (inactive) | > 100 µM (inactive) | 24.9 µM (inactive) | > 100 µM (inactive) | 51.2 µM (inactive) | > 100 µM (inactive) | > 100 µM (inactive) | > 100 µM (inactive) | > 100 µM (inactive) | > 100 µM (inactive) | > 100 µM (inactive) | > 100 µM (inactive) | > 100 µM (inactive) | > 100 µM (inactive)
7 | COc1ccc(OC)c2[s+]snc12 | 83.8 µM (inactive) | > 100 µM (inactive) | > 100 µM (inactive) | 68.2 µM (inactive) | 49.5 µM (inactive) | > 100 µM (inactive) | > 100 µM (inactive) | > 100 µM (inactive) |  | 72.4 µM (inactive) | 70.8 µM (inactive) | 75.2 µM (inactive) | > 100 µM (inactive) | 47.8 µM (inactive) | 19 µM (inactive) | 60.4 µM (inactive) |  |  |  | 
8 | NC1CCC(c2cc3ccccc3s2)(N2CCCCC2)CC1 (stereo not drawn) | 1.58 µM (inactive) | 1.5 µM (inactive) | 5.78 µM (inactive) | 1.61 µM (inactive) |  | 2.23 µM (inactive) | 24.1 µM (inactive) | 1.66 µM (inactive) | 0.817 µM (active) | 6.01 µM (inactive) | 1.32 µM (inactive) | 1.64 µM (inactive) | 10.6 µM (inactive) | 1.76 µM (inactive) | 2.08 µM (inactive) | 3.33 µM (inactive) | 4.67 µM (inactive) | 0.489 µM (active) | 1.21 µM (inactive) | 1.74 µM (inactive)
9 | O=C(O)C1Cc2c([nH]c3ccccc23)C(CCCCO)N1 (stereo not drawn) | > 100 µM (inactive) | > 100 µM (inactive) | > 100 µM (inactive) | > 100 µM (inactive) |  | > 100 µM (inactive) | > 100 µM (inactive) | > 100 µM (inactive) | > 100 µM (inactive) | > 100 µM (inactive) | > 100 µM (inactive) | > 100 µM (inactive) | > 100 µM (inactive) | > 100 µM (inactive) | > 100 µM (inactive) | > 100 µM (inactive) | > 100 µM (inactive) | > 100 µM (inactive) | > 100 µM (inactive) | > 100 µM (inactive)
10 | C[C@H]1CC[C@H]([C@@H](C)[C@H]2[C@@H](O)C[C@H]3[C@@H]4CC[C@H]5C[C@@H](O)CC[C@]5(C)[C@H]4CC[C@]23C)NC1 | 18.7 µM (inactive) | 18.9 µM (inactive) | 18.3 µM (inactive) | 18.7 µM (inactive) |  | 15.7 µM (inactive) | 18.1 µM (inactive) | 19.2 µM (inactive) | 7.31 µM (inactive) | 20.6 µM (inactive) | 9.66 µM (inactive) | 15.5 µM (inactive) | 15.9 µM (inactive) | 15.8 µM (inactive) | 21.3 µM (inactive) | 15.8 µM (inactive) | 16.2 µM (inactive) | 14.5 µM (inactive) | 17.5 µM (inactive) | 21.3 µM (inactive)
11 | N=C1C(=N)c2ccccc2-c2ccccc21 | 1.35 µM (inactive) | 2.09 µM (inactive) | 1.65 µM (inactive) | 1 µM (active) |  | 1.19 µM (inactive) | 1.82 µM (inactive) | 2 µM (inactive) | 0.959 µM (active) | 1.82 µM (inactive) | 0.337 µM (active) | 0.6 µM (active) | 1.7 µM (inactive) | 1.21 µM (inactive) | 0.308 µM (active) | 1.45 µM (inactive) | 1.49 µM (inactive) | 2.49 µM (inactive) | 0.914 µM (active) | 0.177 µM (active)
12 | CCOC(=O)c1cn2c(n1)sc1cc(C)c(C)cc12 | 19.2 µM (inactive) | 19 µM (inactive) | 24.6 µM (inactive) | 20.1 µM (inactive) |  | 17.3 µM (inactive) | 18.9 µM (inactive) | 23 µM (inactive) | 25.6 µM (inactive) | 22.1 µM (inactive) | 29 µM (inactive) | 35.7 µM (inactive) | 26.5 µM (inactive) | 31 µM (inactive) | 16.5 µM (inactive) | > 100 µM (inactive) | 21.4 µM (inactive) | 25.4 µM (inactive) | 28.7 µM (inactive) | 6.04 µM (inactive)
13 | Oc1cccc2c(Br)ccnc12 | 12.3 µM (inactive) | 17.1 µM (inactive) | 32.7 µM (inactive) | 3.51 µM (inactive) |  | 8.38 µM (inactive) | 7.1 µM (inactive) | 2.12 µM (inactive) | 0.665 µM (active) | 4.65 µM (inactive) | 0.855 µM (active) | 3.94 µM (inactive) | 26.7 µM (inactive) | 3.16 µM (inactive) | 2.74 µM (inactive) | 2.55 µM (inactive) | 3.89 µM (inactive) | 5.71 µM (inactive) | 8.93 µM (inactive) | 5.71 µM (inactive)
14 | O=C(O)c1ccc(C(=O)c2ccccc2C(=O)O)cc1C(=O)O | > 100 µM (inactive) | > 100 µM (inactive) | > 100 µM (inactive) | > 100 µM (inactive) |  | > 100 µM (inactive) | > 100 µM (inactive) | > 100 µM (inactive) | > 100 µM (inactive) | > 100 µM (inactive) | > 100 µM (inactive) | > 100 µM (inactive) | > 100 µM (inactive) | > 100 µM (inactive) | > 100 µM (inactive) | > 100 µM (inactive) | > 100 µM (inactive) | > 100 µM (inactive) | > 100 µM (inactive) | > 100 µM (inactive)
15 | O=CC12C3CCC1C2C(=O)C3 (stereo not drawn) | > 100 µM (inactive) | > 100 µM (inactive) | > 100 µM (inactive) | > 100 µM (inactive) |  | > 100 µM (inactive) | > 100 µM (inactive) | > 100 µM (inactive) | > 100 µM (inactive) | > 100 µM (inactive) | > 100 µM (inactive) | > 100 µM (inactive) | > 100 µM (inactive) | > 100 µM (inactive) | > 100 µM (inactive) | > 100 µM (inactive) | > 100 µM (inactive) | > 100 µM (inactive) | > 100 µM (inactive) | > 100 µM (inactive)
16 | O=C1CSC(=S)N1/N=C/c1ccc(Cl)c([N+](=O)[O-])c1 | 27.5 µM (inactive) | 38.6 µM (inactive) | 53.5 µM (inactive) | 33.7 µM (inactive) |  | 19.1 µM (inactive) | 36.4 µM (inactive) | 36.7 µM (inactive) | 21.5 µM (inactive) | 33.8 µM (inactive) | 31.1 µM (inactive) | 17.9 µM (inactive) | 36.6 µM (inactive) | 18.3 µM (inactive) | 53.6 µM (inactive) | 22.5 µM (inactive) | 36.6 µM (inactive) | 27.6 µM (inactive) | 19.8 µM (inactive) | 22.4 µM (inactive)
